Literature values as cited in patent US20130191933A1, “METHODS OF TREATING PAIN AND MORPHINE TOLERANCE VIA MODULATION OF HEDGEHOG SIGNALLING PATHWAY” (BOARD OF REGENTS, THE UNIVERSITY OF TEXAS SYSTEM, priority 2010, published 2013).
“Also recorded” adds a separate entry of the source. Like-named read-outs stand apart in the source and are kept apart here.

Key:
[1] = test system: Gli1, Gli2, PtchI and other Shh-target genes; conditions: in a variety of cell types; cited from earlier work
Smo = Smo (Homo sapiens, UniProt Q99835); conditions: cited from earlier work
Smo, sequence (Q99835 28-787): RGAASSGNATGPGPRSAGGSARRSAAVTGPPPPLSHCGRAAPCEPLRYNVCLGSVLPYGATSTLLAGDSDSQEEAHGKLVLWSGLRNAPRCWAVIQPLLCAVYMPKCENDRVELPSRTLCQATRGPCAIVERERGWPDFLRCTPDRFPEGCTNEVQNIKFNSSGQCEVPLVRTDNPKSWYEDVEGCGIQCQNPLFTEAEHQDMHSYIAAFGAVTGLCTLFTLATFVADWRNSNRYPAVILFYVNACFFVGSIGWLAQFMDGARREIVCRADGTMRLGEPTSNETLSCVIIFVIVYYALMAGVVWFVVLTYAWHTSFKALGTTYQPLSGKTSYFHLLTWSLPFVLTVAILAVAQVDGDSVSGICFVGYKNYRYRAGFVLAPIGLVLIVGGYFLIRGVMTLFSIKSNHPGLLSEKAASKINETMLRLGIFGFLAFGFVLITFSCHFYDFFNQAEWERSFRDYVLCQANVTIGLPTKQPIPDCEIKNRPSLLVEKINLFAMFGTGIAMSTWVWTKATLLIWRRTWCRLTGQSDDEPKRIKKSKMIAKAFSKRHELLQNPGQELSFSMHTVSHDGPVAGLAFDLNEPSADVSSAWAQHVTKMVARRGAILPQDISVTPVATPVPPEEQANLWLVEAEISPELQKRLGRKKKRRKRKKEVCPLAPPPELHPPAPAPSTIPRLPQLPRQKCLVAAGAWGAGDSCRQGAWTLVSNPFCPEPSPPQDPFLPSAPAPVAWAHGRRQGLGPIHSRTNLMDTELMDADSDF

[2] = test system: Gli-mediated transcription; conditions: in a variety of cell types (Cur-61414: cell and tissues types; Robotnikinin: also synthetic human tissue); cited from earlier work
Shh = Shh (Homo sapiens, UniProt Q15465); conditions: cited from earlier work
Shh, sequence (Q15465 24-462, species assumed): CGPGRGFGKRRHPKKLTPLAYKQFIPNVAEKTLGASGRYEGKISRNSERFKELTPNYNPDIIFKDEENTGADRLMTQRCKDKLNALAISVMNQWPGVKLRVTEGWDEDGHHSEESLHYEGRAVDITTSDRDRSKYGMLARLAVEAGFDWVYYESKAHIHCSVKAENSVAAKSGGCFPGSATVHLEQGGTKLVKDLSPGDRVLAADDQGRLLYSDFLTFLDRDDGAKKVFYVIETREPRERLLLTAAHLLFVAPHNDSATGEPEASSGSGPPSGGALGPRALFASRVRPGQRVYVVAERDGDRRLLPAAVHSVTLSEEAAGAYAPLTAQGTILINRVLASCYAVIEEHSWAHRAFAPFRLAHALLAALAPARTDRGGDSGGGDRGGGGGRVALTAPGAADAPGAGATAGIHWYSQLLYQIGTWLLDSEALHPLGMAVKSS

Compound	transcription of Gli1, Gli2, PtchI and other Shh-target genes [1]	targeting / binding of Smo (Smo)	targeting / binding of Smo (Smo; listed as jervine)	Gli-mediated transcription [2]	direct binding to Shh (Shh)
CC1=C2C(=O)[C@H]3[C@@H](CC=C4C[C@@H](O)CC[C@@]43C)[C@@H]2CC[C@]12O[C@@H]1C[C@H](C)CN[C@H]1[C@H]2C [Jervine]	Inhibits transcription of Gli1, Gli2, PtchI and other Shh-target	Targets Smo	target Smo		
O=C(C[C@@H]1C/C=C/CCC(=O)O[C@H](c2ccccc2)CNC1=O)NCc1ccc(Cl)cc1 [Robotnikinin]				Represses Gli-medicated transcription in a variety of cell types and	binds directly to Sonic Hedgehog; also recorded: Binds directly to Shh
